The text below walks through data of paper PMC5841289, “Natural polyphenols as sirtuin 6 modulators” (Scientific Reports, 2018).

“Also recorded” adds a separate entry of the source.

Broadly, the inhibition is the change of the read-out against control, counted positive when it falls.

The target in assay [1] is T1, GST-tagged SIRT6 (Homo sapiens, UniProt Q8N6T7).
T1 construct: made in house; host or cells: E. coli BL21(DE3)-pRARE
The experiment in a line: HPLC-based SIRT6 deacetylation assay with H3K9Ac peptide.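 For all read-outs here: recombinant SIRT6 incubated 30 min at 37 °C with 500 µM NAD+ and H3K9Ac peptide, deacetylated H3K9 quantified by reversed-phase HPLC-MRM peak area versus DMSO control.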 As to conditions: for Inhibition % 10 µM / inhibition at 10 µM: 10 µM compound; for Inhibition % 10 µM / Activation 100 µM / Inhibition % 100 µM / inhibition at 100 µM / inhibition at 10 µM: mean ± SD, n=3; for Activation 100 µM / Inhibition % 100 µM / inhibition at 100 µM: 100 µM compound; for Activation 100 µM: 40 µM H3K9Ac, fold per Fig. 2C legend. It counts as biochemical.

For assay [2], the target named is T2, GST-SIRT6 (Homo sapiens, UniProt Q8N6T7).
T2 construct: made in house; host or cells: E. coli BL21(DE3)-pRARE
T2 sequence (Q8N6T7 whole entry): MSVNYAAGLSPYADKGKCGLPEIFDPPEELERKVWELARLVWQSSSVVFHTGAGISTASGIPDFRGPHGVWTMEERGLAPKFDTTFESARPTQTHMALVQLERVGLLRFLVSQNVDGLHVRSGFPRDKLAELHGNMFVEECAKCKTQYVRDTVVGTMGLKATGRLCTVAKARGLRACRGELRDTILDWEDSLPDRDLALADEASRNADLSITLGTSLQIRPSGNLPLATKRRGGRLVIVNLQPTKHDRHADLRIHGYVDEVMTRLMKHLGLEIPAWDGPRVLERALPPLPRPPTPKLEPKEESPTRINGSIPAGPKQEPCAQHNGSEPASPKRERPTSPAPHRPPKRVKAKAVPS
Put plainly: In vitro SIRT6 deacetylation of core histones, western blot of H3K9Ac. It counts as biochemical. Conditions: 100 µM. As to the method:
Western blot analysis was carried out as previously described, with slight modifications. […] The reaction was stopped with Laemmli (sample buffer) and separated by SDS-PAGE using 10–20% gradient gels and transferred onto polyvinylidene difluoride (PVDF) membranes. H3K9 acetylation was detected with rabbit anti-acetyl H3K9 antibody followed by anti-rabbit HRP-conjugated secondary antibody. Membranes were stripped and re-probed with rabbit anti-histone H3 antibody. Chemiluminescent signal detection and image acquisition were carried out using ECL prime western blotting detection reagents.
3 μg/well of a purified recombinant GST‐SIRT6 protein, 1.25 μg purified whole chicken core histones with 500 μM NAD+ in 25 mM Tris‐HCl, pH 8.0. Analysis were repeated three times and one representative cropped blot is shown (A). Uncropped blots probed with H3K9Ac (B), H3 (C). […]
(In general: A western blot detects proteins with antibodies after separation by electrophoresis.)

The target of assay [3] is T1, GST-tagged SIRT6. Further details: method as in PMID 26607666. Conditions: cited from earlier work.

T1 sequence (Q8N6T7 whole entry): as above

With `O=C1C[C@@H](c2ccc(O)c(O)c2)Oc2cc(O)cc(O)c21` [Compound 11, Eriodictoyl], in assay [1], the “SIRT6 inhibition, in words” value was “did not improve the inhibitory activity towards SIRT6 compared to compound 1”; the “Inhibition % 10 µM” value stood at 19 ± 2.2%; the “Activation 100 µM” value was found to be 1.1 fold; the “Inhibition % 100 µM” value is given as 27 ± 1.5%.
As for `Oc1cc(O)c2cc(O)c(-c3cc(O)c(O)c(O)c3)[o+]c2c1` [Compound 18, Delphinidin], in assay [1], the “SIRT6 activation, in words” value is listed as “increase in deacetylase activity; also recorded: weaker activity against SIRT6 than compound 17”; the “Activation 100 µM” value was found to be 2.2 ± 0.1 fold; the inhibition at 100 µM was found to be 0%. Also, the “Increase of deacetylation activity (H3K9Ac on core histones)” value in assay [2] was ~2.5 fold.
Regarding `O=C1C[C@@H](c2ccc(O)cc2)Oc2cc(O)cc(O)c21` [Compound 10, Naringenin], in assay [1], the “SIRT6 inhibition, in words” value is on record as “did not improve the inhibitory activity towards SIRT6 compared to compound 1”; the inhibition at 10 µM amounted to 8.3 ± 1.1%; the “Activation 100 µM” value stood at 1.1 ± 0.05 fold; the inhibition at 100 µM was found to be 23 ± 1.5%.
For `COc1cc(/C=C/C(=O)O)ccc1O` [Compound 26, trans-Ferulic acid], in assay [1], the “SIRT6 inhibition, in words” value is “inactive”; the “Activation 100 µM” value was found to be 0.9 ± 0.6 fold; the “Inhibition % 100 µM” value is -8.6 ± 0.3%.
As for `O=c1cc(-c2ccc(O)cc2)oc2cc(O)cc(O)c12` [Compound 12, Apigenin], in assay [1], the “SIRT6 activation, in words” value is “inactive”; the “Activation 100 µM” value came out at 0.9 ± 0.01 fold; the inhibition at 100 µM was determined as 1 ± 0.6%.
Consider `O=C(O[C@@H]1Cc2c(O)cc(O)cc2O[C@H]1c1cc(O)c(O)c(O)c1)c1cc(O)c(O)c(O)c1` [Compound 5, (−)-Gallocatechin gallate], for which, in assay [1], the inhibition at 10 µM is 79 ± 0.5% and the “Activation 100 µM” value worked out at 0.01 ± 0.01 fold.
As for `Oc1cc(O)c2c(c1)O[C@@H](c1cc(O)c(O)c(O)c1)[C@H](O)C2` [Compound 3, (−)-Gallocatechin], in assay [1], the “SIRT6 inhibition, in words” value is “weak inhibitor”; the inhibition at 10 µM was 17 ± 0.8%; the “Activation 100 µM” value was determined as 0.2 ± 0.01 fold; the inhibition at 100 µM came out at 23 ± 1%.
Turning to `O=c1c(O)c(-c2cc(O)c(O)c(O)c2)oc2cc(O)cc(O)c12` [Compound 16, Myricetin], the inhibition at 100 µM in assay [1] stood at 0%.
For the compound `O=C(O)C=Cc1ccc(O)cc1` [Compound 24, p-Coumaric acid], in assay [1], the “SIRT6 inhibition, in words” value was “inactive”; the “Activation 100 µM” value was 0.6 ± 0.1 fold; the inhibition at 100 µM is 8.5 ± 1.2%.
`O=c1c(O)c(-c2ccc(O)c(O)c2)oc2cc(O)cc(O)c12` [Compound 15, Quercetin]: the “Modulation of SIRT6 deacetylation activity, in words” value in assay [3] is reported as “increase SIRT6 deacetylation activity at high concentrations, while also inhibiting deacetylation activity at low concentrations”. Also, in assay [1], the “SIRT6 inhibition, in words” value is given as “inhibitors as well as activators depending on the concentration”; the inhibition at 10 µM is 27 ± 0.4%; the “Activation 100 µM” value is 1.5 ± 0.1 fold; the inhibition at 100 µM was found to be 40 ± 3%.
Take `Oc1cc(O)c2c(c1)O[C@@H](c1ccc(O)c(O)c1)[C@H](O)C2` [Compound 2, (−)-Catechin]: in assay [1], the inhibition at 10 µM was found to be 25 ± 0.8%, the “Activation 100 µM” value is 0.4 ± 0.04 fold and the inhibition at 100 µM amounted to 54%.
In the case of `COc1cc(CCC(=O)O)ccc1O` [Compound 23, 3-(4-Hydroxy-3-methoxyphenyl)propionic acid], in assay [1], the “SIRT6 activation, in words” value is “increased slightly SIRT6 activation”; the “Activation 100 µM” value was determined as 1.8 ± 0.05 fold; the inhibition at 100 µM was -12 ± 1.1%.
`O=C(O[C@@H]1Cc2c(O)cc(O)cc2O[C@@H]1c1ccc(O)c(O)c1)c1cc(O)c(O)c(O)c1` [Compound 8, (−)-Epicatechin gallate]: in assay [1], the inhibition at 10 µM stood at 15 ± 0.9%, the “Activation 100 µM” value was 0.1 ± 0.01 fold and the inhibition at 100 µM came to 60 ± 3.6%.
In the case of `O=c1cc(-c2ccc(O)c(O)c2)oc2cc(O)cc(O)c12` [Compound 13, Luteolin], the “Modulation of SIRT6 deacetylation activity, in words” value in assay [3] is reported as “increase SIRT6 deacetylation activity at high concentrations, while also inhibiting deacetylation activity at low concentrations”. In addition, in assay [1], the “SIRT6 inhibition, in words” value is “weak inhibitor”; the inhibition at 10 µM came to 24 ± 1.8%; the “Activation 100 µM” value was 1.2 ± 0.04 fold; the inhibition at 100 µM was determined as 29 ± 0.3%.
With `NC(=O)c1cccnc1` [Compound 21, Nicotinamide, reference compound], the inhibition at 1000 µM in assay [1] came out at 58 ± 1.3%.
Take `O=c1c(O)c(-c2ccc(O)cc2)oc2cc(O)cc(O)c12` [Compound 14, Kaempferol]: in assay [1], the “SIRT6 inhibition, in words” value was “inhibitors as well as activators depending on the concentration”; the inhibition at 10 µM came out at 40 ± 0.8%; the “Activation 100 µM” value turned out to be 2.2 ± 0.1 fold; the inhibition at 100 µM came out at 24 ± 1.7%. In addition, in assay [1] (at saturating concentrations of compound), the “Maximal activation (fold)” value amounted to 3.0 fold.
Turning to `O=C(O)/C=C/c1ccc(O)c(O)c1` [Compound 25, Caffeic Acid], in assay [1], the “SIRT6 inhibition, in words” value was “inactive”; the “Activation 100 µM” value is 1.0 ± 0.01 fold; the inhibition at 100 µM is -5.9 ± 0.2%.
Turning to `Oc1cc(O)c2c(c1)O[C@H](c1ccc(O)c(O)c1)[C@@H](O)C2` [Compound 1, (+)-Catechin], in assay [1], the inhibition at 10 µM worked out at 17 ± 1.6%, the “Activation 100 µM” value is 0.8 ± 0.02 fold and the inhibition at 100 µM came to 26%.
In the case of `O=C(O[C@@H]1Cc2c(O)cc(O)cc2O[C@@H]1c1cc(O)c(O)c(O)c1)c1cc(O)c(O)c(O)c1` [Compound 9, (−)-Epigallocatechin gallate], in assay [1], the “SIRT6 inhibition, in words” value is on record as “moderate inhibition”; the inhibition at 10 µM came out at 10 ± 1.4%; the “Activation 100 µM” value worked out at 0.8 ± 0.04 fold; the inhibition at 100 µM came out at 42 ± 1.9%.
Take `COc1cc(/C=C/C(=O)O)cc(OC)c1O` [Compound 27, Sinapic Acid]: in assay [1], the “SIRT6 inhibition, in words” value is “inactive”; the “Activation 100 µM” value is reported as 0.6 ± 0.2 fold; the “Inhibition % 100 µM” value is recorded as 8.0 ± 0.9%.
On to `O=c1c(-c2ccc(O)cc2)coc2cc(O)cc(O)c12` [Compound 19, Genistein], for which, in assay [1], the “SIRT6 inhibition, in words” value was “weak SIRT6 inhibitors”; the inhibition at 10 µM worked out at 1.8 ± 0.3%; the “Activation 100 µM” value was determined as 0.7 ± 0.2 fold; the inhibition at 100 µM came out at 9.6 ± 1.4%.
Consider `O=C(O)c1cc(O)c(O)c(O)c1` [Compound 22, Gallic Acid], for which, in assay [1], the “SIRT6 activation, in words” value is given as “increased slightly SIRT6 activation”; the “Activation 100 µM” value was found to be 1.4 ± 0.04 fold; the inhibition at 100 µM stood at 14 ± 1.2%.
Regarding `COc1ccc(-c2coc3cc(O)cc(O)c3c2=O)cc1` [Compound 20, Biochanin A], in assay [1], the “SIRT6 activation, in words” value is “able to activate deacetylation of SIRT6”; the “SIRT6 inhibition, in words” value is reported as “weak SIRT6 inhibitors”; the “Inhibition % 10 µM” value turned out to be 13 ± 0.5%; the “Activation 100 µM” value is 1.3 ± 0.02 fold. Moreover, the “Inhibition % 100 µM” value in assay [1] is recorded as 24 ± 0.9%.
As for `Oc1cc(O)c2c(c1)O[C@H](c1ccc(O)c(O)c1)[C@H](O)C2` [Compound 6, (−)-Epicatechin], in assay [1], the inhibition at 100 µM was found to be 10 ± 0.1%.
Consider `O=C(O[C@@H]1Cc2c(O)cc(O)cc2O[C@H]1c1ccc(O)c(O)c1)c1cc(O)c(O)c(O)c1` [Compound 4, (−)-Catechin gallate], for which, in assay [1], the inhibition at 10 µM amounted to 62 ± 0.7% and the “Activation 100 µM” value was found to be 0.1 ± 0.03 fold.
